In one test the target is METTL3/14 (Homo sapiens (Human), UniProt Q86U44).
For a further test, the system named is Caov-3 cells. Kind of test: Caov3 CTG proliferation assay. The test is classed as cell-based. The following applies: Homo sapiens. How it is done: CTG Assay (Caov3 Cell Line)
Upon treatment, Coav-3 cells were incubated for 10 min at RT with the CellTiter-Glo reagent (G7571, Promega). Measurement of the luminescence signal was performed on a microplate reader (Ensight, PerkinElmer).
Caov3 CTG Assay—Proliferation Assay

Where [1] appears, read: Caov-3, treated for 120 hours, CellTiter-Glo luminescence, read-out: Caov3 cells IC50.

SMILES strings stand for the structures. Where two headings read alike, the source gives them in different places.

Sequence of METTL3/14 (Q86U44 whole entry): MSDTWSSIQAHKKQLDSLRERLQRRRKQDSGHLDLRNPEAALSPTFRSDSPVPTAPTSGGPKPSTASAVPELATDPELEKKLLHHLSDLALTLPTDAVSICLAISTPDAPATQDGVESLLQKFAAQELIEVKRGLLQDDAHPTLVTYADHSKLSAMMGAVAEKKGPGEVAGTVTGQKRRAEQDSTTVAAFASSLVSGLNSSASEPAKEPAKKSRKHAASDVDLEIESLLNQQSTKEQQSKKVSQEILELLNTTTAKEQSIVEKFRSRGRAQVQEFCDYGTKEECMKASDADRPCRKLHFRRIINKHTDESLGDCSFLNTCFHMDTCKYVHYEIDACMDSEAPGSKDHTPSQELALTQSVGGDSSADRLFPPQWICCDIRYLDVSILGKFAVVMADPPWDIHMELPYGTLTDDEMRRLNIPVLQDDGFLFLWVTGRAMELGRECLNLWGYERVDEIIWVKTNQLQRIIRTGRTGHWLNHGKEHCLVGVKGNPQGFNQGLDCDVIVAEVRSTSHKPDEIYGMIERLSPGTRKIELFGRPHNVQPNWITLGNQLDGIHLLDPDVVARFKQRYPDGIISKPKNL
Sequence of METTL3/14 (Q9HCE5 whole entry partner): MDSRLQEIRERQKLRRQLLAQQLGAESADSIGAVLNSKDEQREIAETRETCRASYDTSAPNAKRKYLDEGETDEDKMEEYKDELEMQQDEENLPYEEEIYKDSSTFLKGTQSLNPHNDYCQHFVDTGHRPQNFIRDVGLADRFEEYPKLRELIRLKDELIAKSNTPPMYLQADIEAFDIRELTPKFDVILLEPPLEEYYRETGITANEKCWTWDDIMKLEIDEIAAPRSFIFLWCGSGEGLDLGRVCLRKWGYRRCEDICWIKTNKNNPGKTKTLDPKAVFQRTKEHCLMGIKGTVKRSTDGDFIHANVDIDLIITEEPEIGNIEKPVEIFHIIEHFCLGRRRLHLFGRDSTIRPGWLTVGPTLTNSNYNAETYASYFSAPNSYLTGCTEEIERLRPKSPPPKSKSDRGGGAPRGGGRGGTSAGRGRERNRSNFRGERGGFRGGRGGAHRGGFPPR

Turning to `O=C(NCc1ccc2cc(CNCC3CC(F)(F)C3)[nH]c2c1)c1cc(=O)n2ccccc2n1` [Compound 3, N-[[2-[[(3,3-difluorocyclobutyl)methylamino]methyl]-1H-indol-6-yl]methyl]-4-oxo-pyrido[1,2-a]pyrimidine-2-carboxamide], the IC50 (in general, the midpoint of a concentration-inhibition curve) on METTL3/14 amounted to 6.1 nM.

Compound `O=C(NCc1ccc2cc(CNCC3(O)CCC3)[nH]c2c1)c1cc(=O)n2ccccc2n1` [Compound 4, N-[[2-[[(1-hydroxycyclobutyl)methylamino]methyl]-1H-indol-6-yl]methyl]-4-oxo-pyrido[1,2-a]pyrimidine-2-carboxamide] gave an IC50 on METTL3/14 of 6.1 nM.

Turning to `O=C(NCc1ccc2cc(CN3CC4CCC3CC4)[nH]c2c1)c1cc(=O)n2ccccc2n1` [Compound 21, N-[[2-(2-azabicyclo[2.2.2]octan-2-ylmethyl)-1H-indol-6-yl]methyl]-4-oxo-pyrido[1,2-a]pyrimidine-2-carboxamide], the IC50 with Caov-3 cells (setting [1]) was 746 nM.

Regarding `O=C(NCc1ccc2cc(CNCC3(O)CCCCC3)[nH]c2c1)c1cc(=O)n2ccccc2n1` [Compound 25, N-[[2-[[(1-hydroxycyclohexyl)methylamino]methyl]-1H-indol-6-yl]methyl]-4-oxo-pyrido[1,2-a]pyrimidine-2-carboxamide], the 50% inhibitory concentration (IC50) in the test with Caov-3 cells (setting [1]) is 732 nM.

In turn, `O=C(NCc1ccc2cc(CNC3CCCCC3)[nH]c2c1)c1cc(=O)n2ccccc2n1` [Compound 30, N-[[2-[(cyclohexylamino)methyl]-1H-indol-6-yl]methyl]-4-oxo-pyrido[1,2-a]pyrimidine-2-carboxamide] gave an IC50 against METTL3/14 of 6.1 nM.

For `O[C@@H]1CCC[C@@H]1NCc1cc2ccc(Cn3cc(-c4cccc5[nH]ncc45)nn3)cc2[nH]1` [Compound 54, (1R,2S)-2-[[6-[[4-(1H-indazol-4-yl)triazol-1-yl]methyl]-1H-indol-2-yl]methylamino]cyclopentanol], the IC50 in the test on Caov-3 cells (setting [1]) was 837 nM.

`CC1(C)CCN(Cc2cc3ccc(CNC(=O)c4cc(=O)n5ccccc5n4)cc3[nH]2)CC1` [Example 1, N-({2-[(4,4-dimethylpiperidin-1-yl)methyl]-1H-indol-6-yl}methyl)-4-oxo-4H-pyrido[1,2-a]pyrimidine-2-carboxamide]: in the test on Caov-3 cells (setting [1]), the IC50 was found to be 260 nM.

Turning to `O=C(NCc1cnc2cc(CNCC3CCC3)[nH]c2c1)c1cc(=O)n2ccccc2n1` [Example 49, N-[[2-[(cyclobutylmethylamino)methyl]-1H-pyrrolo[3,2-b]pyridin-6-yl]methyl]-4-oxo-pyrido[1,2-a]pyrimidine-2-carboxamide], the IC50 with Caov-3 cells (Caov-3, 120 h, read-out: Caov3 cells IC50 nM) was determined as 1060 nM.

As for `c1cc(-c2cn(Cc3ccc4cc(CNCC5CCC5)[nH]c4c3)cn2)c2cn[nH]c2c1` [Example 64, N-(cyclobutylmethyl)-1-[6-[[4-(1H-indazol-4-yl)imidazol-1-yl]methyl]-1H-indol-2-yl]methanamine], the IC50 with Caov-3 cells (setting [1]) amounted to 922 nM.

The compound `c1cc(-c2nsc(Cc3ccc4cc(CNCC5CCC5)[nH]c4c3)n2)c2cn[nH]c2c1` [Example 65] came in with an IC50 on METTL3/14 of 16100 nM.

For `c1cc2cc(-c3cn(Cc4ccc5cc(CNCC6CCC6)[nH]c5c4)cn3)cnc2[nH]1` [Example 134, (cyclobutylmethyl)({6-[(4-{1H-pyrrolo[2,3-b]pyridin-5-yl}-1H-imidazol-1-yl)methyl]-1H-indol-2-yl}methyl)amine], the midpoint of inhibition at METTL3/14, the IC50, lay at 6.1 nM.

Turning to `c1cc(-c2cn(Cc3ccc4cc(CNCC5CCC5)[nH]c4c3)nn2)c2cncn2c1` [Example 135, (cyclobutylmethyl)({6-[(4-{imidazo[1,5-a]pyridin-8-yl}-1H-1,2,3-triazol-1-yl)methyl]-1H-indol-2-yl}methyl)amine], the IC50 in the test on Caov-3 cells (setting [1]) is 269 nM.

On to `c1cc2cc(-c3cn(Cc4ccc5cc(CNCC6CCC6)[nH]c5c4)nn3)cnc2[nH]1` [Example 138, (cyclobutylmethyl)({6-[(4-{1H-pyrrolo[2,3-b]pyridin-5-yl}-1H-1,2,3-triazol-1-yl)methyl]-1H-indol-2-yl}methyl)amine], for which 6.1 nM corresponded to half-maximal inhibition against METTL3/14 (IC50).

The values are drawn from US11725010B2, “Polyheterocyclic compounds as METTL3 inhibitors” (Storm Therapeutics Limited, priority 2019, dated 2023).
